We go through 32 compounds from ChEMBL document CHEMBL4364346, “Structure optimization of a new class of PPARγ antagonists” (Bioorg Med Chem, 2019).

Each structure is given as a SMILES string. ≈ marks a conversion by molar mass, not a printed value.

Data set [1] deals with T1, Peroxisome proliferator-activated receptor gamma (Homo sapiens, UniProt P37231).
T1 sequence (P37231 whole entry): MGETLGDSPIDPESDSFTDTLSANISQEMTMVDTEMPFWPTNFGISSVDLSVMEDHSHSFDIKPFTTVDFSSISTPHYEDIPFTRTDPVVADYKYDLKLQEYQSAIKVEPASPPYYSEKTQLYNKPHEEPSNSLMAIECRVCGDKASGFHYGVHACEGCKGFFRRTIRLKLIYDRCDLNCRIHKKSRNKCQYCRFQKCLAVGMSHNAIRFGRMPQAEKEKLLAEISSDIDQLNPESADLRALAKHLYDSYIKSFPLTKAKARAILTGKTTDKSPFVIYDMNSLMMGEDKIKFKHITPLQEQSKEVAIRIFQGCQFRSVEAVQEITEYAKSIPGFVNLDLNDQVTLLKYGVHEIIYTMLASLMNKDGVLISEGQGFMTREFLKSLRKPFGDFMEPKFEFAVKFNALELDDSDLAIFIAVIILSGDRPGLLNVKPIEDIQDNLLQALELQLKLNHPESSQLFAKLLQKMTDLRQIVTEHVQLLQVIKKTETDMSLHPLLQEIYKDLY
The data set can be described thus: Antagonist actvity in pFA-GAL4-DBD fused PPARgamma LBD (unknown origin) transfected in HEK293T cells assessed as inhibition of rosiglitazone-induced PPARgamma transactivation incubated for 24 hrs by luciferase reporter gene assay. The format is cell-based. In general terms: A reporter such as luciferase makes a cellular process visible.

Data set [2] can be described thus: Solubility of compound in PBS buffer pH 7.4 with 1% DMSO measured after 1 and 24 hrs. The format is physicochemical. To be noted: PBS buffer with 1% DMSO.

Usually IC50 stands for the concentration that inhibits the measured activity by half. Regarding `CCC/C(=C\c1cc(OC)ccc1OCc1ccc2nc(C(F)(F)F)cc(OC)c2c1)C(=O)O`, the IC50 entry in data set [1] is “Not Active”.
As to `CCC/C(=C\c1cc(OCc2ccc3[nH]c(=O)ccc3c2)ccc1OCc1ccc(F)cc1)C(=O)O`, in data set [1] (read-out: IC50), the half-maximal inhibitory concentration (IC50) came out at 6.1 µM.
For the compound `COc1cc(C(F)(F)F)nc2ccc(COc3ccc(OCc4ccc(F)cc4)c(/C=C(\CC4CC4)C(=O)O)c3)cc12`, the half-inhibitory concentration (IC50) in data set [1] (read-out: IC50) is 8.4 µM.
Consider `COc1cc(C(F)(F)F)nc2ccc(COc3ccc(OCc4ccc(F)cc4)c(/C=C(\C)C(=O)O)c3)cc12`, for which, in data set [1] (read-out: IC50), the IC50 worked out at 9.4 µM.
Regarding `CCC/C(=C\c1cc(OCc2ccc3nc(C(F)(F)F)cc(OC)c3c2)ccc1OCC1CCNCC1)C(=O)O`, in data set [1], the half-inhibitory concentration (IC50) entry is “Not Active”.
For `COc1cc(C(F)(F)F)nc2ccc(COc3ccc(OCc4ccc(F)cc4)c(/C=C/C(=O)O)c3)cc12`, in data set [1] (read-out: IC50), the IC50 was found to be 11 µM.
With `CCC/C(=C\c1cc(OCc2ccc3c(ccc[n+]3[O-])c2)ccc1OCc1ccc(F)cc1)C(=O)O`, the 50% inhibitory concentration (IC50) in data set [1] (read-out: IC50) amounted to 6.1 µM.
Consider `CCC/C(=C\c1cc(OCc2ccc3nc(C(F)(F)F)cc(OC)c3c2)ccc1OCCN1CCNCC1)C(=O)O`, for which the half-maximal inhibitory concentration (IC50) in data set [1] (read-out: IC50) is 9.6 µM.
`CCCC/C(=C\c1cc(OCc2ccc3nc(C(F)(F)F)cc(OC)c3c2)ccc1OCc1ccc(OC(F)F)cc1)C(=O)O`: in data set [1] (read-out: IC50), the IC50 was determined as 2.6 µM.
Take `CCC/C(=C\c1cc(OCc2ccc3ccccc3c2)ccc1OCc1ccc(F)cc1)C(=O)O`: the IC50 in data set [1] (read-out: IC50) is 15.8 µM.
For the compound `CCC/C(=C\c1cc(OCc2ccc3ncccc3c2)ccc1OCC1CCN(C)CC1)C(=O)O`, in data set [1] (read-out: IC50), the 50% inhibitory concentration (IC50) was 15.1 µM.
With `CCCn1c(C(=O)O)cc2c(OC)ccc(OCc3ccc4nc(C(F)(F)F)cc(OC)c4c3)c21`, in data set [1] (read-out: IC50), the IC50 is 3.9 µM.
The same measure, in the same setting: next, `CCC/C(=C\c1cc(OCc2ccc3nc(C(F)(F)F)cc(OC)c3c2)ccc1OCc1ccc(F)cc1)C(=O)O`: 3.2 µM.
As to `CCC/C(=C\c1cc(OCc2ccc3ccccc3n2)ccc1OCc1ccc(F)cc1)C(=O)O`, the 50% inhibitory concentration (IC50) in data set [1] (read-out: IC50) amounted to 13.1 µM.
Regarding `CCC/C(=C\c1cc(OCc2ccc3cccnc3c2)ccc1OCc1ccc(F)cc1)C(=O)O`, in data set [1] (read-out: IC50), the IC50 is 23.9 µM.
On the same count and under the same terms, next, `CCC/C(=C\c1cc(OCc2ccc3nc(C(F)(F)F)cc(OC)c3c2)ccc1NC(=O)c1ccc(F)cc1)C(=O)O`: 9.5 µM; `CCC/C(=C\c1cc(OCc2ccc3nc(C(F)(F)F)cc(OC)c3c2)ccc1OCc1ccncc1)C(=O)O`: 4.7 µM.
The solubility is the dissolved amount per volume that the medium holds. High values mean a readily soluble substance, low ones a poorly soluble substance. In data set [2], `CCCC/C(=C\c1cc(OCc2ccc3nc(C(F)(F)F)cc(OC)c3c2)ccc1OCc1ccc(C(F)(F)F)cc1)C(=O)O` returned a solubility at 24 h of 50 to 75 µM (≈ 31.7 to 47.5 µg/mL).
Turning to `COc1cc(C(F)(F)F)nc2ccc(COc3ccc(OCc4ccc(F)cc4)c(/C=C(\F)C(=O)O)c3)cc12`, the half-inhibitory concentration (IC50) entry in data set [1] is “Not Active”.
As to `CCC/C(=C\c1cc(OCc2ccc3nc(C(F)(F)F)cc(OC)c3c2)ccc1OCc1ccccc1F)C(=O)O`, the 50% inhibitory concentration (IC50) in data set [1] (read-out: IC50) is 3.5 µM.
Regarding `CCC/C(=C\c1cc(OCc2ccc3ncccc3c2)ccc1OCc1ccc(F)cc1)C(=O)O`, the half-inhibitory concentration (IC50) in data set [1] (read-out: IC50) was found to be 5 µM.
On to `COc1cc(C(F)(F)F)nc2ccc(COc3ccc(OCC4CCN(C)CC4)c(/C=C(\CCC4CC4)C(=O)O)c3)cc12`, for which the half-maximal inhibitory concentration (IC50) in data set [1] (read-out: IC50) came out at 7.5 µM.
As to `CCC/C(=C\c1cc(OCc2ccc3[nH]ccc3c2)ccc1OCc1ccc(F)cc1)C(=O)O`, the half-maximal inhibitory concentration (IC50) entry in data set [1] was “Not Active”.
With `CCC/C(=C\c1cc(OCc2ccc(N(C)C)cc2)ccc1OCc1ccc(F)cc1)C(=O)O`, the half-maximal inhibitory concentration (IC50) entry in data set [1] is recorded as “Not Active”.
As to `CC/C(=C\c1cc(OCc2ccc3nc(C(F)(F)F)cc(OC)c3c2)ccc1OCc1ccc(F)cc1)C(=O)O`, the 50% inhibitory concentration (IC50) in data set [1] (read-out: IC50) worked out at 5.7 µM.
The same measure, in the same setting: next, `CCCC/C(=C\c1cc(OCc2ccc3nc(C(F)(F)F)cc(OC)c3c2)ccc1OCc1ccc(F)cc1)C(=O)O`: 2.3 µM; `CCC/C(=C\c1cc(OCc2ccc3nc(C)ccc3c2)ccc1OCc1ccc(F)cc1)C(=O)O`: 4.2 µM.
For the compound `CCC/C(=C\c1cc(OCc2ccc3nc(C(F)(F)F)cc(OC)c3c2)ccc1OCc1ccccc1)C(=O)O`, the half-maximal inhibitory concentration (IC50) in data set [1] (read-out: IC50) amounted to 7.2 µM.
With `CCC/C(=C\c1cc(OCc2ccc3nc(C(F)(F)F)cc(OC)c3c2)ccc1OCc1cccc(F)c1)C(=O)O`, the IC50 in data set [1] (read-out: IC50) worked out at 3.9 µM.
Turning to `CCCC/C(=C\c1cc(OCc2cn(Cc3ccc(C(=O)O)cc3)nn2)ccc1OCc1ccc(C(F)(F)F)cc1)C(=O)O`, the half-maximal inhibitory concentration (IC50) result in data set [1] is “Not Active”.
Take `CCCC/C(=C\c1cc(OCc2ccc3nc(C(F)(F)F)cc(OC)c3c2)ccc1OCc1ccc(OC(F)(F)F)cc1)C(=O)O`: in data set [1] (read-out: IC50), the IC50 was found to be 1.9 µM.
Turning to `CCCCC(Cc1cc(OCc2ccc3nc(C(F)(F)F)cc(OC)c3c2)ccc1OCc1ccc(C(F)(F)F)cc1)C(=O)O` (configuration not stated), in data set [1], the IC50 result is “Not Active”.
